“And” between values parts separate entries of the source, which are not always exact repeats. Equal entries are not always repeated. Toxic doses and inconclusive results are not listed.
Test system: P388 leukemia ip, CD2F1 mice, survival T/C
Experiment: NCI In Vivo Anticancer Drug Screen. Data for tumor model P388 Leukemia (intraperitoneal) in CD2F1 (CDF1) mice
Conditions: endpoint: median survival time, higher = longer survival
Summary of the method: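 Mice carrying the transplanted tumor received test compound or vehicle. Survival was recorded in each group, and the value is the treated-group measurement divided by that of the vehicle-treated control group.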

[1] = dose: 12.5 mg/kg/injection, schedule: Q01DX009 (ip), vehicle: saline with Tween-80
[2] = dose: 50.0 mg/kg/injection, schedule: Q01DX005 (ip), vehicle: saline with Tween-80
[3] = dose: 50.0 mg/kg/injection, schedule: Q01DX009 (ip), vehicle: saline
[4] = dose: 100.0 mg/kg/injection, schedule: Q01DX009 (ip), vehicle: saline
[5] = dose: 60.0 mg/kg/injection, schedule: Q01DX005 (ip), vehicle: saline with Tween-80
[6] = dose: 120.0 mg/kg/injection, schedule: Q01DX005 (ip), vehicle: saline with Tween-80
[7] = dose: 240.0 mg/kg/injection, schedule: Q01DX005 (ip), vehicle: saline with Tween-80
[8] = dose: 25.0 mg/kg/injection, schedule: Q01DX009 (ip), vehicle: saline with Tween-80
[9] = dose: 12.5 mg/kg/injection, schedule: Q01DX009 (ip), vehicle: saline
[10] = dose: 25.0 mg/kg/injection, schedule: Q01DX009 (ip), vehicle: saline
[11] = dose: 50.0 mg/kg/injection, schedule: Q01DX009 (ip), vehicle: saline with Tween-80
[12] = dose: 100.0 mg/kg/injection, schedule: Q01DX009 (ip), vehicle: saline with Tween-80
[13] = dose: 60.0 mg/kg/injection, schedule: Q01DX005 (ip), vehicle: Klucel (hydroxypropylcellulose) (HPC)
[14] = dose: 120.0 mg/kg/injection, schedule: Q01DX005 (ip), vehicle: Klucel (hydroxypropylcellulose) (HPC)
[15] = dose: 200.0 mg/kg/injection, schedule: Q01DX009 (ip), vehicle: saline with Tween-80

CCc1cc2c(cc1C(=O)CBr)C(C)(C)CCC2(C)C
T/C (dose: 6.25 mg/kg/injection, schedule: Q01DX009 (ip), vehicle: saline with Tween-80): 109 % of control | T/C [1]: 113 % of control | T/C (dose: 12.5 mg/kg/injection, schedule: Q04DX003 (ip), vehicle: saline with Tween-80): 118 % of control | T/C (dose: 25.0 mg/kg/injection, schedule: Q04DX003 (ip), vehicle: saline with Tween-80): 113 % of control

Cc1ccc(-c2nc3sccn3c2C=O)cc1
T/C (dose: 100.0 mg/kg/injection, schedule: Q01DX001 (ip), vehicle: Klucel (hydroxypropylcellulose) (HPC)): 95 % of control | T/C (dose: 200.0 mg/kg/injection, schedule: Q01DX001 (ip), vehicle: Klucel (hydroxypropylcellulose) (HPC)): 96 % of control | T/C (dose: 400.0 mg/kg/injection, schedule: Q01DX001 (ip), vehicle: Klucel (hydroxypropylcellulose) (HPC)): 96 % of control

N#CC(=C1SCS1)[N+](=O)[O-]
T/C (dose: 1.56 mg/kg/injection, schedule: Q01DX009 (ip), vehicle: saline): 121 % of control | T/C (dose: 3.13 mg/kg/injection, schedule: Q01DX009 (ip), vehicle: saline with Tween-80): 121 % of control

Cc1cc2nc3ccc(N(C)C)cc3nc2cc1N
T/C (dose: 12.5 mg/kg/injection, schedule: Q01DX005 (ip), vehicle: saline): 96 % of control | T/C (dose: 25.0 mg/kg/injection, schedule: Q01DX005 (ip), vehicle: saline): 100 % of control | T/C [2]: 95 % of control | T/C (dose: 50.0 mg/kg/injection, schedule: Q01DX005 (ip), vehicle: saline): 112 % of control

O=C1CCSC(=S)N1c1ccc(F)c(F)c1
T/C (dose: 50.0 mg/kg/injection, schedule: Q01DX009 (ip), vehicle: suspension in saline): 107 % of control | T/C (dose: 100.0 mg/kg/injection, schedule: Q01DX009 (ip), vehicle: suspension in saline): 92 % of control | T/C (dose: 200.0 mg/kg/injection, schedule: Q01DX009 (ip), vehicle: suspension in saline): 92 % of control

ClC1(Cl)CC1[Se]c1ccccc1 (stereo not given)
T/C [3]: 100 % of control | T/C [4]: 102 % of control | T/C (dose: 200.0 mg/kg/injection, schedule: Q01DX009 (ip), vehicle: saline): 99 % of control

O=S(=O)(Nc1ccnn1-c1ccccc1)c1ccc(N=Cc2c3ccccc3nc3cc(Cl)ccc23)cc1
T/C [5]: 94 % of control | T/C [6]: 91 % of control | T/C [7]: 102 % of control

CN1C(=O)N(C)C2(C#N)CC2([N+](=O)[O-])C1=O (stereo not given)
T/C [1]: 89 % of control | T/C [8]: 90 % of control

NNc1ccc(Cl)nn1
T/C (dose: 7.5 mg/kg/injection, schedule: Q01DX005 (ip), vehicle: saline with Tween-80): 101 % of control | T/C (dose: 15.0 mg/kg/injection, schedule: Q01DX005 (ip), vehicle: saline with Tween-80): 99 % of control

O=c1cccccc1O
T/C [9]: 105 % of control and 107 % of control | T/C [10]: 100 % of control

COc1ccc(C=C2C(=O)N(C)C(=O)N(C)C2=O)cc1
T/C [11]: 112 % of control | T/C [12]: 118 % of control

C1COCCOCCOCCOCCO1.[Cl][Sn]([Cl])([Cl])[Cl]
T/C [13]: 100 % of control | T/C [14]: 99 % of control

CN(C)C1C(=O)c2ccccc2C1=O
T/C [5]: 96 % of control | T/C [6]: 107 % of control | T/C [7]: 112 % of control

CC1CN(C(=O)c2ccccc2)CC/C1=N\O (stereo not given)
T/C [2]: 97 % of control | T/C (dose: 100.0 mg/kg/injection, schedule: Q01DX005 (ip), vehicle: saline with Tween-80): 93 % of control | T/C (dose: 200.0 mg/kg/injection, schedule: Q01DX005 (ip), vehicle: saline with Tween-80): 101 % of control

CC(C)(C)c1cc(N)cc([N+](=O)[O-])c1
T/C (dose: 100.0 mg/kg/injection, schedule: Q04DX002 (ip), vehicle: other): 109 % of control | T/C (dose: 200.0 mg/kg/injection, schedule: Q04DX002 (ip), vehicle: other): 102 % of control

O=[N+]([O-])CC(OCCCCCCCCCCO)C(Cl)(Cl)Cl (stereo not given)
T/C [11]: 104 % of control | T/C [12]: 100 % of control | T/C [15]: 100 % of control

COP(=O)(CC(=O)NCc1cc(C(C)(C)C)c(O)c(C(C)(C)C)c1)OC
T/C [11]: 110 % of control | T/C [12]: 103 % of control | T/C [15]: 100 % of control

O=C(O)/C=N/NS(=O)(=O)/C=C/c1ccccc1
T/C (dose: 25.0 mg/kg/injection, schedule: Q01DX009 (ip), vehicle: distilled water + Tween-80): 166 % of control | T/C (dose: 50.0 mg/kg/injection, schedule: Q01DX009 (ip), vehicle: distilled water + Tween-80): 172 % of control | T/C (dose: 100.0 mg/kg/injection, schedule: Q01DX009 (ip), vehicle: distilled water + Tween-80): 112 % of control

O=C(O)C(Cc1ccsc1)NC(=O)C(F)(F)F (stereo not given)
T/C (dose: 50.0 mg/kg/injection, schedule: Q01DX009 (ip), vehicle: saline + alcohol): 94 % of control | T/C (dose: 100.0 mg/kg/injection, schedule: Q01DX009 (ip), vehicle: saline + alcohol): 99 % of control | T/C (dose: 200.0 mg/kg/injection, schedule: Q01DX009 (ip), vehicle: saline + alcohol): 98 % of control

CCCC1CCC(=C2C(=O)CCC2=O)O1 (stereo not given)
T/C (dose: 25.0 mg/kg/injection, schedule: Q04DX002 (ip), vehicle: saline): 102 % of control | T/C (dose: 50.0 mg/kg/injection, schedule: Q04DX002 (ip), vehicle: saline): 102 % of control | T/C (dose: 100.0 mg/kg/injection, schedule: Q04DX002 (ip), vehicle: saline with Tween-80): 110 % of control | T/C (dose: 100.0 mg/kg/injection, schedule: Q04DX002 (ip), vehicle: saline): 103 % of control | T/C (dose: 200.0 mg/kg/injection, schedule: Q04DX002 (ip), vehicle: saline with Tween-80): 102 % of control | T/C (dose: 200.0 mg/kg/injection, schedule: Q04DX002 (ip), vehicle: saline): 100 % of control

CC(C)Nc1nc(NCC2CC2)nc(ON2C(=O)CCC2=O)n1
T/C [1]: 100 % of control | T/C [8]: 99 % of control | T/C [11]: 100 % of control and 86 % of control | T/C [15]: 104 % of control

C=C(Cl)C(=NC(C)(C)C)Nc1ccc(C(=O)OCC)cc1
T/C (dose: 50.0 mg/kg/injection, schedule: Q01DX005 (ip), vehicle: Klucel (hydroxypropylcellulose) (HPC)): 103 % of control | T/C (dose: 100.0 mg/kg/injection, schedule: Q01DX005 (ip), vehicle: Klucel (hydroxypropylcellulose) (HPC)): 100 % of control | T/C (dose: 200.0 mg/kg/injection, schedule: Q01DX005 (ip), vehicle: Klucel (hydroxypropylcellulose) (HPC)): 118 % of control

CC(=O)Nc1c(Cl)nc2cc(N(C)C)ccc2c1Cl
T/C (dose: 60.0 mg/kg/injection, schedule: Q01DX005 (ip), vehicle: Klucel + Tween-80): 97 % of control | T/C (dose: 120.0 mg/kg/injection, schedule: Q01DX005 (ip), vehicle: Klucel + Tween-80): 96 % of control | T/C (dose: 240.0 mg/kg/injection, schedule: Q01DX005 (ip), vehicle: Klucel + Tween-80): 97 % of control

Cc1cccc(C(=O)CCN(C)C)c1
T/C [9]: 94 % of control | T/C [10]: 99 % of control | T/C [3]: 100 % of control and 101 % of control and 108 % of control | T/C [4]: 98 % of control

CC(=O)Nc1ccc(Nc2nc(Cl)nc(Nc3ccc(NC(C)=O)cc3)n2)cc1
T/C (dose: 30.0 mg/kg/injection, schedule: Q01DX005 (ip), vehicle: Klucel (hydroxypropylcellulose) (HPC)): 100 % of control | T/C [13]: 89 % of control and 97 % of control | T/C [14]: 93 % of control | T/C (dose: 240.0 mg/kg/injection, schedule: Q01DX005 (ip), vehicle: Klucel (hydroxypropylcellulose) (HPC)): 89 % of control

Nn1cnnc1N/N=C\c1ccc(N(CCCl)CCCl)cc1
T/C [9]: 121 % of control and 122 % of control | T/C [3]: 174 % of control and 188 % of control | T/C [4]: 195 % of control and 209 % of control

CCOC(=O)C(C)(C)Oc1ccc(Cl)cc1
T/C [11]: 100 % of control | T/C [12]: 93 % of control | T/C [15]: 112 % of control

O=S(=O)(CC(O)C(Cl)(Cl)Cl)N(Cc1ccccc1)Cc1ccccc1 (stereo not given)
T/C (dose: 50.0 mg/kg/injection, schedule: Q01DX009 (ip), vehicle: Klucel (hydroxypropylcellulose) (HPC)): 103 % of control | T/C (dose: 100.0 mg/kg/injection, schedule: Q01DX009 (ip), vehicle: Klucel (hydroxypropylcellulose) (HPC)): 103 % of control | T/C (dose: 200.0 mg/kg/injection, schedule: Q01DX009 (ip), vehicle: Klucel (hydroxypropylcellulose) (HPC)): 97 % of control
